Assay results reported in patent US10112899B2 (ViiV HEALTHCARE UK LIMITED, priority 2014, dated 2018).

Test system: HIV in the HTLV-1 transformed cell line MT-4
Assay: organism not typed
Assay type: cell-based
Details: MT4, 96 h, MT-4 cells; luciferase/cell titer glo readout after 96 hours; 10 point dose response

Structure (SMILES) | IC50 [nM]
COc1ccccc1C(=O)N1Cc2c(C)c(-c3cc(F)c4c(c3C)CCCO4)c([C@H](OC(C)(C)C)C(=O)O)c(C)c2C1 (atropisomer, axis not shown; (M)) [Example 199, (S)-2-(tert-butoxy)-2-((M)-6-(8-fluoro-5-methylchroman-6-yl)-2-(2-methoxybenzoyl)-4,7-dimethylisoindolin-5-yl)acetic acid] | 4
Cc1ccc(-c2c(C)c3c(c(C)c2[C@H](OC(C)(C)C)C(=O)O)CN(C(=O)CC(C)(C)C)C3)cc1 [Example 110, (S)-2-(tert-butoxy)-2-(2-(3,3-dimethylbutanoyl)-4,7-dimethyl-6-(p-tolyl)isoindolin-5-yl)acetic acid] | 6
Cc1ccc(-c2c(C)c3c(c(C)c2[C@H](OC(C)(C)C)C(=O)O)CN(CC2CCCCC2)C3)cc1 [Example 30, (S)-2-(tert-butoxy)-2-(2-(cyclohexylmethyl)-4,7-dimethyl-6-(p-tolyl)isoindolin-5-yl)acetic acid] | 47
Cc1ccc(-c2c(C)c3c(c(C)c2[C@H](OC(C)(C)C)C(=O)O)CN(C(=O)c2ccc4c(c2)B(O)OC4)C3)cc1 [Example 256, (S)-2-(tert-butoxy)-2-(2-(1-hydroxy-1,3-dihydrobenzo[c][1,2]oxaborole-6-carbonyl)-4,7-dimethyl-6-(p-tolyl)isoindolin-5-yl)acetic acid] | 740
Cc1ccc(-c2c(C)c3c(c(C)c2[C@H](OC(C)(C)C)C(=O)O)CN(C(=O)C(C)(C)C(F)(F)F)C3)cc1 [Example 241, (S)-2-(tert-butoxy)-2-(4,7-dimethyl-6-(p-tolyl)-2-(3,3,3-trifluoro-2,2-dimethylpropanoyl)isoindolin-5-yl)acetic acid] | 25
Cc1ccc(-c2c(C)c3c(c(C)c2[C@H](OC(C)(C)C)C(=O)O)CN(Cc2cccnc2)C3)cc1 [Example 41, (2S)-2-(tert-butoxy)-2-[4,7-dimethyl-6-(4-methylphenyl)-2-(pyridin-3-ylmethyl)-2,3-dihydro-1H-isoindol-5-yl]acetic acid] | 50
Cc1c(F)cccc1C(=O)N1Cc2c(C)c(-c3cc(F)c4c(c3C)CCCO4)c([C@H](OC(C)(C)C)C(=O)O)c(C)c2C1 (atropisomer, axis not shown; (M)) [Example 141, (S)-2-(tert-butoxy)-2-((M)-2-(3-fluoro-2-methylbenzoyl)-6-(8-fluoro-5-methylchroman-6-yl)-4,7-dimethylisoindolin-5-yl)acetic acid] | 4
Cc1ccc(-c2c(C)c3c(c(C)c2[C@H](OC(C)(C)C)C(=O)O)CN(C(=O)c2ccc(Cl)c(F)c2)C3)cc1 [Example 264, (S)-2-(tert-butoxy)-2-(2-(4-chloro-3-fluorobenzoyl)-4,7-dimethyl-6-(p-tolyl)isoindolin-5-yl)acetic acid] | 9
Cc1c(-c2c(C)c3c(c(C)c2[C@H](OC(C)(C)C)C(=O)O)CN(C(=O)c2ccc(F)cc2)C3)cc(F)c2c1CCCO2 (atropisomer, axis not shown; (M)) [Example 174, (S)-2-(tert-butoxy)-2-((M)-6-(8-fluoro-5-methylchroman-6-yl)-2-(4-fluorobenzoyl)-4,7-dimethylisoindolin-5-yl)acetic acid] | 4
Cc1ccc(-c2c(C)c3c(c(C)c2[C@H](OC(C)(C)C)C(=O)O)CN(C(=O)NC(C)(C)C)C3)cc1 [Example 63] | 15
Cc1c(-c2c(C)c3c(c(C)c2[C@H](OC(C)(C)C)C(=O)O)CN(C(=O)c2cc(F)cc(F)c2)C3)cc(F)c2c1CCCO2 (atropisomer, axis not shown; (M)) [Example 170, (S)-2-(tert-butoxy)-2-((M)-2-(3,5-difluorobenzoyl)-6-(8-fluoro-5-methylchroman-6-yl)-4,7-dimethylisoindolin-5-yl)acetic acid] | 2
Cc1ccc(-c2c(C)c3c(c(C)c2[C@H](OC(C)(C)C)C(=O)O)CN(C(=O)c2ccc4c(c2)OCCO4)C3)cc1 [Example 255, (S)-2-(tert-butoxy)-2-(2-(2,3-dihydrobenzo[b][1,4]dioxine-6-carbonyl)-4,7-dimethyl-6-(p-tolyl)isoindolin-5-yl)acetic acid] | 13
COc1ccc(F)cc1C(=O)N1Cc2c(C)c(-c3cc(F)c4c(c3C)CCCO4)c([C@H](OC(C)(C)C)C(=O)O)c(C)c2C1 (atropisomer, axis not shown; (M)) [Example 150, (S)-2-(tert-butoxy)-2-((M)-2-(5-fluoro-2-methoxybenzoyl)-6-(8-fluoro-5-methylchroman-6-yl)-4,7-dimethylisoindolin-5-yl)acetic acid] | 4
Cc1c2c(c(C)c([C@H](OC(C)(C)C)C(=O)O)c1-c1ccc(Cl)cc1)CN(C(=O)C1CCCCC1)C2 [Example 134, (S)-2-(tert-butoxy)-2-(6-(4-chlorophenyl)-2-(cyclohexanecarbonyl)-4,7-dimethylisoindolin-5-yl)acetic acid] | 6
Cc1ccc(-c2c(C)c3c(c(C)c2[C@H](OC(C)(C)C)C(=O)O)CN(C(=O)NCc2ncccn2)C3)cc1 [Example 290, (S)-2-(tert-butoxy)-2-(4,7-dimethyl-2-((pyrimidin-2-ylmethyl)carbamoyl)-6-(p-tolyl)isoindolin-5-yl)acetic acid] | 2560
Cc1ccc(-c2c(C)c3c(c(C)c2[C@H](OC(C)(C)C)C(=O)O)CN(C(=O)N2CCN4CCC[C@@H]4C2)C3)cc1 [Example 80, (2S)-2-{2-[(8aR)-octahydropyrrolo[1,2-a]piperazine-2-carbonyl]-4,7-dimethyl-6-(4-methylphenyl)-2,3-dihydro-1H-isoindol-5-yl}-2-(tert-butoxy)acetic acid] | 381
Cc1ccc(-c2c(C)c3c(c(C)c2[C@H](OC(C)(C)C)C(=O)O)CN(Cc2cccc(F)c2F)C3)cc1 [Example 3, (S)-2-(tert-butoxy)-2-(2-(2,3-difluorobenzyl)-4,7-dimethyl-6-(p-tolyl)isoindolin-5-yl)acetic acid] | 40
Cc1ccc(-c2c(C)c3c(c(C)c2[C@H](OC(C)(C)C)C(=O)O)CN(C(=O)N2CCOC[C@@H]2C)C3)cc1 [Example 91, (S)-2-(tert-butoxy)-2-(4,7-dimethyl-2-((S)-3-methylmorpholine-4-carbonyl)-6-(p-tolyl)isoindolin-5-yl)acetic acid] | 13
Cc1ccc(-c2c(C)c3c(c(C)c2[C@H](OC(C)(C)C)C(=O)O)CN(C(=O)c2ccc(F)c(Cl)c2)C3)cc1 [Example 252, (S)-2-(tert-butoxy)-2-(2-(3-chloro-4-fluorobenzoyl)-4,7-dimethyl-6-(p-tolyl)isoindolin-5-yl)acetic acid] | 4
Cc1c(-c2c(C)c3c(c(C)c2[C@H](OC(C)(C)C)C(=O)O)CN(C(=O)c2ccccn2)C3)cc(F)c2c1CCCO2 (atropisomer, axis not shown; (M)) [Example 184, (S)-2-(tert-butoxy)-2-((M)-6-(8-fluoro-5-methylchroman-6-yl)-4,7-dimethyl-2-picolinoylisoindolin-5-yl)acetic acid] | 2
Cc1ccc(-c2c(C)c3c(c(C)c2[C@H](OC(C)(C)C)C(=O)O)CN(C(=O)c2cc(C)c(F)c(F)c2)C3)cc1 [Example 278, (S)-2-(tert-butoxy)-2-(2-(3,4-difluoro-5-methylbenzoyl)-4,7-dimethyl-6-(p-tolyl)isoindolin-5-yl)acetic acid] | 5
Cc1c(-c2c(C)c3c(c(C)c2[C@H](OC(C)(C)C)C(=O)O)CN(C(=O)c2cc(F)c(F)c(F)c2)C3)cc(F)c2c1CCCO2 (atropisomer, axis not shown; (M)) [Example 173, (S)-2-(tert-butoxy)-2-((M)-6-(8-fluoro-5-methylchroman-6-yl)-4,7-dimethyl-2-(3,4,5-trifluorobenzoyl)isoindolin-5-yl)acetic acid] | 3
COc1ccc(C)cc1C(=O)N1Cc2c(C)c(-c3cc(F)c4c(c3C)CCCO4)c([C@H](OC(C)(C)C)C(=O)O)c(C)c2C1 (atropisomer, axis not shown; (M)) [Example 183, (S)-2-(tert-butoxy)-2-((M)-6-(8-fluoro-5-methylchroman-6-yl)-2-(2-methoxy-5-methylbenzoyl)-4,7-dimethylisoindolin-5-yl)acetic acid] | 4
Cc1c(-c2c(C)c3c(c(C)c2[C@H](OC(C)(C)C)C(=O)O)CN(C(=O)N2CCC(F)(F)C2)C3)ccc2c1CCCO2 [Example 320, (2S)-2-(tert-butoxy)-2-(2-(3,3-difluoropyrrolidine-1-carbonyl)-4,7-dimethyl-6-(5-methylchroman-6-yl)isoindolin-5-yl)acetic acid] | 3
Cc1c(-c2c(C)c3c(c(C)c2[C@H](OC(C)(C)C)C(=O)O)CN(C(=O)N2CCC[C@@H]2C)C3)cc(F)c2c1CCCO2 (atropisomer, axis not shown; (M)) [Example 212, (S)-2-(tert-butoxy)-2-((M)-6-(8-fluoro-5-methylchroman-6-yl)-4,7-dimethyl-2-((S)-2-methylpyrrolidine-1-carbonyl)isoindolin-5-yl)acetic acid] | 2
Cc1c(-c2c(C)c3c(c(C)c2[C@H](OC(C)(C)C)C(=O)O)CN(C(=O)c2cccc4ccccc24)C3)cc(F)c2c1CCCO2 (atropisomer, axis not shown; (M)) [Example 168, (S)-2-((M)-2-(1-naphthoyl)-6-(8-fluoro-5-methylchroman-6-yl)-4,7-dimethylisoindolin-5-yl)-2-(tert-butoxy)acetic acid] | 11
Cc1ccc(-c2c(C)c3c(c(C)c2[C@H](OC(C)(C)C)C(=O)O)CN(S(=O)(=O)N2CCOCC2)C3)cc1 [Example 52, (2S)-2-(tert-butoxy)-2-[4,7-dimethyl-6-(4-methylphenyl)-2-(morpholine-4-sulfonyl)-2,3-dihydro-1H-isoindol-5-yl]acetic acid] | 18
Cc1c(-c2c(C)c3c(c(C)c2[C@H](OC(C)(C)C)C(=O)O)CN(C(=O)N2CCCCC2)C3)ccc2c1NCCO2 [Example 319, (2S)-2-(tert-butoxy)-2-(4,7-dimethyl-6-(5-methyl-3,4-dihydro-2H-benzo[b][1,4]oxazin-6-yl)-2-(piperidine-1-carbonyl)isoindolin-5-yl)acetic acid] | 4
